Experimental data published in patent publication US11591569B2, “Methods for epicardial differentiation of human pluripotent stem cells” (Wisconsin Alumni Research Foundation, priority 2015, dated 2023).

Tests used:
Format in all cases: cell-based, human
[1] = system: hPSC-derived epicardial cells; assay: Long-term expansion of hPSC-derived epicardial cells
Method: Long-Term Maintenance of hPSC-Derived Epicardial Cells: To expand the epicardial cells, confluent cells on day 3 or 4 of differentiation were split 1:3 at a density of 0.04 to 0.08 million cells/cm^2 using Versene (Life Technologies) or Accutase and routinely passaged onto gelatin-coated plates in LaSR basal medium or RPMI/Vc/Ins medium and 0.5 μM A83-01 (Stemgent) or 2 μM SB431542 (Stemgent) with medium changed daily until the cells reached confluence. Overnight treatment of 5 μM Y27632 and 1% human recombinant albumin (Sigma-Aldrich) on single cells during passage was used to improve cell attachment and survival, but they were not required once cells attached.
Flow Cytometry Analysis: Cells were dissociated into single cells with Accutase for 10 minutes and then fixed with 1% paraformaldehyde for 20 minutes at room temperature and stained with primary and secondary antibodies (Table 1) in PBS plus 0.1% Triton X-100 and 0.5% BSA. Data were collected on a FACSCaliber flow cytometer (Beckton Dickinson) and analyzed using FlowJo. FACS gating was based on the corresponding isotype antibody control.

[2] = system: hPSC-derived cardiac progenitors; assay: Epicardial (WT1+) differentiation of hPSC-derived cardiac progenitors, flow cytometry at day 12; settings: for cTnT+WT1+ cells: day 6 progenitors treated day 7 to day 9, day 12 flow cytometry; for WT1+ cell differentiation compared with 3 μM CHIR99021: 0.3 μM, day 7 to day 9, GiWiGi protocol, flow cytometry at day 12
Method: Epicardial Cell Generation Via Activation of Canonical Wnt Signaling: At day 6, cardiac progenitor cells were singularized with Accutase at 37° C. for 5 minutes and then seeded onto a gelatin-coated cell culture dish at 20,000-80,000 cells/cm^2 in LaSR basal medium (advanced DMEM/F12 with 100 μg/mL ascorbic acid) or RPMI/Vc/Ins medium (100 μg/mL ascorbic acid and 1 μg/mL human recombinant or bovine insulin (Sigma)) with 5 μM ROCK inhibitor Y-27632 for 24 hours. […] Data were collected on a FACSCaliber flow cytometer (Beckton Dickinson) and analyzed using FlowJo. FACS gating was based on the corresponding isotype antibody control. Pro-epicardium arises from ISL1+NKX2.5+ second heart field progenitors in vivo^1,41.

hPSCs = assay: Cardiac progenitor induction from hPSCs, gene expression by quantitative RT-PCR; settings: 6 μM CHIR99021 at day 0 in RPMI medium, H13 hESCs
Method: Cardiac Progenitor Induction Via Modulation of Canonical Wnt Signaling: When hPSCs maintained on a SyntheMax-coated surface achieved confluence, cells were singularized with Accutase (Innovative Cell Technologies) at 37° C. for 5 minutes and then seeded onto a SyntheMax-coated cell culture dish at 250,000 cells/cm^2 in mTeSR1 or E8 supplemented with 5 μM ROCK inhibitor Y-27632 (Selleckchem) (day −3) for 24 hours. Cells were then cultured in mTeSR1 or E8, changed daily. At day 0, cells were treated with 6 μM CHIR99021 (Selleckchem) for 24 hours in RPMI medium, followed by a change with RPMI medium at day 1. 2.5-5 μM IWP2 (Tocris) was added at day 3 and removed during the medium change at day 5.
(§1) RT-PCR and Quantitative RT-PCR: Total RNA was prepared with the RNeasy mini kit (QIAGEN) and treated with DNase (QIAGEN). 1 μg RNA was reverse transcribed into cDNA via Oligo (dT) with Superscript III Reverse Transcriptase (Invitrogen). Real-time quantitative PCR was done in triplicate with iQSYBR Green SuperMix (Bio-Rad). GAPDH was used as an endogenous housekeeping control.

[3] = system: hPSC-derived epicardial cells; assay: EMT induction of hPSC-derived epicardial cells; settings: 10 ng/mL bFGF, 5 ng/mL TGFβ1; for Cell morphology after treatment: H13 hESC-derived epicardial cells, day 18; for Expression of WT1 and ZO1: immunostaining; for EMT (CDH1 decreased, CDH2 and SNAIL2 increased versus untreated controls): qPCR and E-cadherin immunostaining
Method: Single Cell Passage and EMT Induction: Confluent WT1+ cells were dissociated into single cells with Accutase at 37° C. for 5 minutes and then seeded onto a gelatin-coated cell culture dish at 10,000 cells/cm^2 in LaSR basal medium supplemented with 5 μM ROCK inhibitor Y-27632 for 24 hr. After 24 hours, medium was changed to LaSR basal medium and cells were treated with TGFβ1 or bFGF (R&D Systems) as indicated. Medium was changed every 3 days until analysis.
Immunostaining Analysis: Cells were fixed with 4% paraformaldehyde for 15 minutes at room temperature and then stained with primary and secondary antibodies (Table 1) in PBS plus 0.4% Triton X-100 and 5% non-fat dry milk (Bio-Rad). Nuclei were stained with Gold Anti-fade Reagent with DAPI (Invitrogen). An epifluorescence microscope (Leica DM IRB) with a QImaging® Retiga 4000R camera was used for imaging analysis.
as §1

[4] = day 6 ISL1+NKX2.5+ progenitors treated 48 hours (day 7 to day 9), H13 hESC-derived day 12 cultures, concentrations per Table 3

Molecule: Cc1cccc(-c2nn(C(=S)Nc3ccccc3)cc2-c2ccnc3ccccc23)n1 [A83-01]
- Expandability of epicardial cells from additional hPSC lines ([1]; 19-9-11 iPSC-derived epicardial cells, 0.5 μM A83-01): expandable
- Expansion with retention of epithelial morphology and WT1 expression ([1]; H13 hESC-derived day 18 epicardial cells, treated 3 days, 0.5 μM): enabled expansion of hPSC-derived epicardial cells that retained polarized epithelial morphology and WT1 expression

Molecule: Cc1c[nH]c(-c2cnc(NCCNc3ccc(C#N)cn3)nc2-c2ccc(Cl)cc2Cl)n1 [CHIR99021]
- WT1+ cells ([2]; 3 μM CHIR, initial density 0.06 million cells per cm^2, LaSR basal medium, day 12): more than 95%
- WT1+ cells [2, 4]: more than 85%
- Gene expression changes in the first 24 hr after addition (hPSCs): down-regulation of the pluripotency markers OCT4 and NANOG, and induction of the primitive streak like gene T

Molecule: c1cc(-c2cnn3cc(-c4ccc(OCCN5CCCCC5)cc4)cnc23)ccn1 [dorsomorphin]
- WT1+ cells [2, 4]: about 10%
- cTnT+WT1+ cells [2]: 2%

Molecule: CC1=C(/C=C/C(C)=C/C=C/C(C)=C/C(=O)O)C(C)(C)CCC1 [retinoic acid]
- WT1+ cells [2, 4]: about 10%
- cTnT+WT1+ cells [2]: 2%

Molecule: BIO-acetoxime
- WT1+ cell differentiation compared with 3 μM CHIR99021 [2]: induced WT1+ cell differentiation to a similar extent as 3 μM CHIR99021

Molecule: CHIR98014
- WT1+ cell differentiation compared with 3 μM CHIR99021 [2]: induced WT1+ cell differentiation to a similar extent as 3 μM CHIR99021

Molecule: TGFβ: TGFβ pathway protein modulator (R&D Systems)
- Cell morphology after treatment [3]: fusiform-shaped appearance
- Expression of WT1 and ZO1 [3]: significantly decreased
- EMT (CDH1 decreased, CDH2 and SNAIL2 increased versus untreated controls) [3]: induced EMT

Molecule: bFGF: FGF pathway protein modulator (R&D Systems)
- Cell morphology after treatment [3]: fibroid spindle
- Expression of WT1 and ZO1 [3]: significantly decreased
- EMT (CDH1 decreased, CDH2 and SNAIL2 increased versus untreated controls) [3]: induced EMT

B1: Bone Morphogenetic Protein 4 (protein, UniProt P12644 293-408, looked up)
Bone morphogenetic protein 4: SPKHHSQRARKKNKNCRRHSLYVDFSDVGWNDWIVAPPGYQAFYCHGDCPFPLADHLNSTNHAIVQTLVNSVNSSIPKACCVPTELSAISMLYLDEYDKVVLKNYQEMVVEGCGCR
notes: TGFβ superfamily growth factor
- Cell population obtained in the presence of CHIR ([2]; co-treatment with CHIR (2 μM CHIR99021, FIG. 10), day 7 to day 9, day 12 flow cytometry of cTnT and WT1): yielded an unknown population at the expense of WT1+ cells
- WT1+ cells [2, 4]: about 10%
- cTnT+WT1+ cells [2]: 2%
